From US9295673B2, “Combination of mTOR inhibitors and P13-kinase inhibitors, and uses thereof” (Intellikine LLC, priority 2011, dated 2016)
Read-outs that look alike come from different tables or passages of the source.

Legend:
[1] = target: PI3K β (Homo sapiens, UniProt P42338); experiment: PI 3-Kinase (human) HTRF assay, PI3K β
Description: (§1) An exemplary system is PI 3-Kinase (human) HTRF™ Assay from Upstate. […] Briefly, the assay is a time resolved FRET assay that indirectly measures PIP3 product formed by the activity of a PI3-K. The kinase reaction is performed in a microtitre plate (e.g., a 384 well microtitre plate). The total reaction volume is approximately 20 ul per well. In the first step, each well receives 2 ul of test compound in 20% dimethylsulphoxide resulting in a 2% DMSO final concentration. […] The plate is sealed and incubated for 15 minutes at room temperature. […] The plate is sealed and incubated for 1 hour at room temperature. The reaction is stopped by adding 5 ul of Stop Solution per well and then 5 ul of Detection Mix is added per well. The plate is sealed, incubated for 1 hour at room temperature, and then read on an appropriate plate reader. Data is analyzed and IC50s are generated using GraphPad Prism 5.

[2] = target: PI3K α (Homo sapiens, UniProt P42336); experiment: PI 3-Kinase (human) HTRF assay, PI3K α
[3] = target: PI3K δ (Homo sapiens, UniProt O00329); experiment: PI 3-Kinase (human) HTRF assay, PI3K δ
PI3K δ, sequence (O00329 whole entry): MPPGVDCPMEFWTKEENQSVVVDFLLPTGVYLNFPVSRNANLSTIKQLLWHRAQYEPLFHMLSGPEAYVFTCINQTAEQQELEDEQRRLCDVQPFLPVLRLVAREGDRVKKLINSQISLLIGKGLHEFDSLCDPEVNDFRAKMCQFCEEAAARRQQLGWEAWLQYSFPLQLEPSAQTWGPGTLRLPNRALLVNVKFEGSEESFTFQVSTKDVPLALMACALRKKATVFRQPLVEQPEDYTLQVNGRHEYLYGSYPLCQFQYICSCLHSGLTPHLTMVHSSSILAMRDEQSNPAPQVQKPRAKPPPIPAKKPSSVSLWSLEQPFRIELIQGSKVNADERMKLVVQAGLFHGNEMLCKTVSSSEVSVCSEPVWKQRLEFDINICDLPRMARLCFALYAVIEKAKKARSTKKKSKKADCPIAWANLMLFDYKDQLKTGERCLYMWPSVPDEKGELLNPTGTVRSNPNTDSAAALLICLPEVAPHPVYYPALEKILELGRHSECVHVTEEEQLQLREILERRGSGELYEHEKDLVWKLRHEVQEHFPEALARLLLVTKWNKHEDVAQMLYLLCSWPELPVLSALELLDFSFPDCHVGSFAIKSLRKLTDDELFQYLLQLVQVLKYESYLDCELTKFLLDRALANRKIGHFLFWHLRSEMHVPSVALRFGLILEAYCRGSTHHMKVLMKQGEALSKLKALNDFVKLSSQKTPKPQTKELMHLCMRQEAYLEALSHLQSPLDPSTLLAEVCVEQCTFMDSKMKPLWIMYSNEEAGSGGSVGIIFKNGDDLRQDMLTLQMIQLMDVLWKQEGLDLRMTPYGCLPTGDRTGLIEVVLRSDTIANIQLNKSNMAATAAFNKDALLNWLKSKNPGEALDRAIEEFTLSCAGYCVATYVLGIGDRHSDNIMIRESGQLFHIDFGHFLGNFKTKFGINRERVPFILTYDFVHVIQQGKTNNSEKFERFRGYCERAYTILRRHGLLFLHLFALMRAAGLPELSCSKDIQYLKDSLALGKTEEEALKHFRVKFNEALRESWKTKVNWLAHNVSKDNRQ
PI3K δ, sequence (P27986 whole entry partner): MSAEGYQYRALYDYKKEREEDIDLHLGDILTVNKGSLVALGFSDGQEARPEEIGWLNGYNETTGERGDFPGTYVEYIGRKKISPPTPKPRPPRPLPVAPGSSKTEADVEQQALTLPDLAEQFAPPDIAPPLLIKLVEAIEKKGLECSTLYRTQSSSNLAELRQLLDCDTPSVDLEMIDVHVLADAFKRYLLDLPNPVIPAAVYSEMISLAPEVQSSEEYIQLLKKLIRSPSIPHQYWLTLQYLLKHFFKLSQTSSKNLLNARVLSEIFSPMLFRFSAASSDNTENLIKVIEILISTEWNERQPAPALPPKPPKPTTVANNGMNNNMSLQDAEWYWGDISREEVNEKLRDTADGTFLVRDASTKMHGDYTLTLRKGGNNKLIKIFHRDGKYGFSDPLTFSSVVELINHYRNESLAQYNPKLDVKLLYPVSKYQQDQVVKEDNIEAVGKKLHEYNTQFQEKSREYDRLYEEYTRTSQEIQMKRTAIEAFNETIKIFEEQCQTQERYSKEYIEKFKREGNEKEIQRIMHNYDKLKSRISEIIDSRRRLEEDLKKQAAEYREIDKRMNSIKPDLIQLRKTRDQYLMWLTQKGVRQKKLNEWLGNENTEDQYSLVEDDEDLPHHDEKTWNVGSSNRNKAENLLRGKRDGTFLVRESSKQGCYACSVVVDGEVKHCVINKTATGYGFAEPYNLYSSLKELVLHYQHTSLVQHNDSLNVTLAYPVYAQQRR

[4] = target: PI3K γ (Homo sapiens, UniProt P48736); experiment: PI 3-Kinase (human) HTRF assay, PI3K γ
PI3K γ, sequence (P48736 whole entry): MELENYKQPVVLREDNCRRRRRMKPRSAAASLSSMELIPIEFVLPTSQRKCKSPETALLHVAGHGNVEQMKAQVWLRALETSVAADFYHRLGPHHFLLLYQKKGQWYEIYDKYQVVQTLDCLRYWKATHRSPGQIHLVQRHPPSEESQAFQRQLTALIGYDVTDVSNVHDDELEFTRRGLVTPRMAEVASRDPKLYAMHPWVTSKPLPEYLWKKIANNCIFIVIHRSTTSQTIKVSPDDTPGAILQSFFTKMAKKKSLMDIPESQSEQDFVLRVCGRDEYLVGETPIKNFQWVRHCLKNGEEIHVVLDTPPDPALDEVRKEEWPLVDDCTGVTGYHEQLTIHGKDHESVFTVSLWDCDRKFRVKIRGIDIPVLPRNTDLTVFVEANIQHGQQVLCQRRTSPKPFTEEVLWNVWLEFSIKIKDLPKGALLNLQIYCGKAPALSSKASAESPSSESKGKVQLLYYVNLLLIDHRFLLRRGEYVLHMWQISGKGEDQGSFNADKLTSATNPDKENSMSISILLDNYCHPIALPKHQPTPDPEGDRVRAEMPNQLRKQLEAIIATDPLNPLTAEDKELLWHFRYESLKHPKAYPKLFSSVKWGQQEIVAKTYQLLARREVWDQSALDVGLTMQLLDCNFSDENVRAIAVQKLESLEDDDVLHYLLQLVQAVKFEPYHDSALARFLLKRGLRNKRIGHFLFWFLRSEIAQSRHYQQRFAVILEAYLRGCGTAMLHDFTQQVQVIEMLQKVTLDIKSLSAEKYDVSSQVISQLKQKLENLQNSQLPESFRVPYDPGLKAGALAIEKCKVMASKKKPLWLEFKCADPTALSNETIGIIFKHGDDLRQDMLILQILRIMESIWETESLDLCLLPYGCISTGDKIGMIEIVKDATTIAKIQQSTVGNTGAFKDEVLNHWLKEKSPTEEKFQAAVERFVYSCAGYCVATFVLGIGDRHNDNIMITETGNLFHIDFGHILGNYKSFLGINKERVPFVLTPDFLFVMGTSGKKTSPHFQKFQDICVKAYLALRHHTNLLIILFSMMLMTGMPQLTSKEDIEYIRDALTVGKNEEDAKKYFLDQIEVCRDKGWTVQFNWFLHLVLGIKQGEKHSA
Description: as §1

[5] = target: T1, mTOR (Homo sapiens, UniProt P42345); experiment: mTOR kinase inhibition assay (radiometric or LanthaScreen TR-FRET); format: biochemical; settings: read-out: mTORC IC50
T1 construct: purchased Invitrogen
T1 sequence (P42345 1360-2549 limits assumed): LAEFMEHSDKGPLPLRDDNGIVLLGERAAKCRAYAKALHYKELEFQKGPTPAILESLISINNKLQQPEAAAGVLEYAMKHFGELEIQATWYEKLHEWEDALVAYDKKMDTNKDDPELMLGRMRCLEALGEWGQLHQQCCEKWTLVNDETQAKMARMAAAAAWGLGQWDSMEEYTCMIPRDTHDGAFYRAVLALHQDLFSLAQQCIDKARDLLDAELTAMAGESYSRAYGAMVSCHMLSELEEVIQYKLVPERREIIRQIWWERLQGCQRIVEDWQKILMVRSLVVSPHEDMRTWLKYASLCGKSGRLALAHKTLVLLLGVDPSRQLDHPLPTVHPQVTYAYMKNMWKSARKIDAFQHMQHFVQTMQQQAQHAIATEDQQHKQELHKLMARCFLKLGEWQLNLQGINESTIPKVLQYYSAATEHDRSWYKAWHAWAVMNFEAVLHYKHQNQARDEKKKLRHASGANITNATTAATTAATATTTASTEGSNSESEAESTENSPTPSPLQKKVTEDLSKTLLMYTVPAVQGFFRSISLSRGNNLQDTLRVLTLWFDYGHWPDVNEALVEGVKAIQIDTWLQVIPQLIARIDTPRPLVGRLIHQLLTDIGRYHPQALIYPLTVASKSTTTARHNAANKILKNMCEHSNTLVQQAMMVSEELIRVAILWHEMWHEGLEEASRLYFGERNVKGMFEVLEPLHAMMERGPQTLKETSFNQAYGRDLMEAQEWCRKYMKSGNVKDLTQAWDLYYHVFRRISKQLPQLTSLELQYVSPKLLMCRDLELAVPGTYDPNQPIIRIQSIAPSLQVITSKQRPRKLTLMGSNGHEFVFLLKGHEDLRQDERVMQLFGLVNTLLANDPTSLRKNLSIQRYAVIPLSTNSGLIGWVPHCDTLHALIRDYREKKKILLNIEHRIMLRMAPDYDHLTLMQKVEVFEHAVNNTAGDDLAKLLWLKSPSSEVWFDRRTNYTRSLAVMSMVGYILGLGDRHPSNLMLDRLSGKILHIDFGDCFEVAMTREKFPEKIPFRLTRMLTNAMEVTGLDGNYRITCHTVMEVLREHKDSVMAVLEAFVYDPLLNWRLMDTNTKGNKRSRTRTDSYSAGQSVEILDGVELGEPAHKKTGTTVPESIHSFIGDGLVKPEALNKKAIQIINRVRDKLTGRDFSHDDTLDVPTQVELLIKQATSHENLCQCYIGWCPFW
Description: The compounds described herein can be tested against recombinant mTOR (Invitrogen) in an assay containing 50 mM HEPES, pH 7.5, 1 mM EGTA, 10 mM MgCl2, 2.5 mM, 0.01% Tween, 10 μM ATP (2.5 μCi of μ-32P-ATP), and 3 mg/mL BSA. Rat recombinant PHAS-1/4EBP1 (Calbiochem; 2 mg/mL) is used as a substrate. Reactions are terminated by spotting onto nitrocellulose, which is washed with 1M NaC1/1% phosphoric acid (approximately 6 times, 5-10 minutes each). Sheets are dried and the transferred radioactivity quantitated by phosphorimaging.
For instance, one can use Invitrogen's LanthaScreen™ Kinase assay to test the inhibitors of mTOR disclosed herein. This assay is a time resolved FRET platform that measures the phosphorylation of GFP labeled 4EBP1 by mTOR kinase. The kinase reaction is performed in a white 384 well microtitre plate. The total reaction volume is 20 ul per well and the reaction buffer composition is 50 mM HEPES pH7.5, 0.01% Polysorbate 20, 1 mM EGTA, 10 mM MnCl2, and 2 mM DTT. In the first step, each well receives 2 ul of test compound in 20% dimethylsulphoxide resulting in a 2% DMSO final concentration. […] The plate is sealed and incubated for 1 hour at room temperature. […] The plate is sealed, incubated for 1 hour at room temperature, and then read on a plate reader set up for LanthaScreen™ TR-FRET. Data is analyzed and IC50s are generated using GraphPad Prism 5.

[6] = read-out: PI3K α IC50, in vitro
[7] = read-out: PI3K γ IC50, in vitro
[8] = read-out: PI3K β IC50, in vitro
[9] = read-out: PI3K δ IC50, in vitro

With Nc1nsc2cc(-c3ccc4nccc(-c5ccncc5)c4c3)ccc12 [Compound 13] the IC50 [1] was under 1000 nM, the IC50 [2] was under 100 nM and the IC50 [3] was under 1000 nM. For the same compound, the IC50 [4] was under 1000 nM.
Work on Nc1nc2cc(-c3ccc4ncc(N5C6CCC5COC6)cc4n3)ccc2o1 [Compound 574] yielded an IC50 ([1]; read-out: PI3K β IC50, Table 4) of under 10000 nM, an IC50 ([2]; read-out: PI3K α IC50, Table 4) of under 100 nM and an IC50 ([3]; read-out: PI3K δ IC50) of over 10000 nM. It also gave an IC50 ([4]; read-out: PI3K γ IC50, Table 4) of under 100 nM.
Work on Nc1nc2cc(-c3ccc4ncc(N5CC(N6C7CCC6COC7)C5)cc4n3)ccc2o1 [Compound 618] yielded an IC50 ([1]; read-out: PI3K β IC50, Table 4) of over 10000 nM, an IC50 ([2]; read-out: PI3K α IC50, Table 4) of under 100 nM and an IC50 ([3]; read-out: PI3K δ IC50) of under 10000 nM. For the same compound, the IC50 ([4]; read-out: PI3K γ IC50, Table 4) was under 1000 nM.
CNC(=O)CCn1nc(-c2cc3cc(O)ccc3[nH]2)c2c(N)ncnc21 [Compound 43] showed an IC50 ([1]; read-out: PI3K β IC50, Table 2) of over 500 nM, an IC50 ([5]; Table 2) of over 500 nM and an IC50 ([2]; read-out: PI3K α IC50) of over 500 nM. It also gave an IC50 ([3]; read-out: PI3K δ IC50, Table 2) of over 500 nM.
For Nc1nc2cc(-c3ccc4ncc(C(=O)NCCOCCO)n4c3)ccc2o1 [Compound 550], the IC50 [2] was under 1000 nM and the IC50 [4] was under 1000 nM.
In the case of CC(C)N1CCC(n2nc(-c3cc4cc(O)cc(Cl)c4[nH]3)c3c(N)ncnc32)CC1 [Compound 56], the IC50 ([1]; read-out: PI3K β IC50, Table 2) is reported as over 500 nM, the IC50 ([5]; Table 2) is reported as over 500 nM and the IC50 ([2]; read-out: PI3K α IC50) is reported as over 500 nM. The IC50 ([4]; read-out: PI3K γ IC50, Table 2) was over 500 nM.
Work on Nc1ncnc2c1c(-c1cc3cc(O)ccc3[nH]1)nn2C1CCOCC1 [Compound 42] yielded an IC50 ([1]; read-out: PI3K β IC50, Table 2) of over 500 nM, an IC50 ([5]; Table 2) of under 5 nM and an IC50 ([2]; read-out: PI3K α IC50) of over 500 nM. For the same compound, the IC50 ([3]; read-out: PI3K δ IC50) was 50 to 100 nM.
Work on CCOC(=O)Cn1nc(-c2cc3cc(O)ccc3[nH]2)c2c(N)ncnc21 [Compound 28] yielded an IC50 ([1]; read-out: PI3K β IC50, Table 2) of over 500 nM, an IC50 ([5]; Table 2) of under 500 nM and an IC50 ([2]; read-out: PI3K α IC50) of over 500 nM. The IC50 ([3]; read-out: PI3K δ IC50) was over 500 nM.
In the case of CC(=O)N1CCC(n2nc(-c3cc4cc(O)ccc4[nH]3)c3c(N)ncnc32)CC1 [Compound 30], the IC50 ([1]; read-out: PI3K β IC50, Table 2) is reported as over 500 nM, the IC50 ([5]; Table 2) is reported as under 25 nM and the IC50 ([2]; read-out: PI3K α IC50) is reported as over 500 nM. It also gave an IC50 ([3]; read-out: PI3K δ IC50, Table 2) of over 500 nM.
CCN1CCN(C(=O)c2cnc3ncc(-c4ccc5oc(N)nc5c4)cn23)CC1 [Compound 141] showed an IC50 [1] of over 10000 nM, an IC50 [2] of under 1000 nM and an IC50 [3] of over 10000 nM. The IC50 [4] was under 10000 nM.
Work on Nc1nc2cc(-c3ccc4ncc(N5CCNC(=O)C5)nc4n3)ccc2o1 [Compound 580] yielded an IC50 [1] of under 1000 nM, an IC50 [2] of under 100 nM and an IC50 [4] of under 100 nM.
Nc1ncnc2c1c(-c1cc3cc(O)ccc3[nH]1)nn2CC(=O)N1CCOCC1 [Compound 34] showed an IC50 ([5]; Table 2) of over 500 nM, an IC50 ([2]; read-out: PI3K α IC50) of over 500 nM and an IC50 ([3]; read-out: PI3K δ IC50) of over 500 nM. It also gave an IC50 ([4]; read-out: PI3K γ IC50) of over 500 nM.
Compound Nc1nc2cc(-c3cnc4ccc(N5C6CCC5COC6)nc4c3)ccc2o1 [Compound 632] has an IC50 ([1]; read-out: PI3K β IC50, Table 4) of over 10000 nM, an IC50 ([2]; read-out: PI3K α IC50) of under 10000 nM and an IC50 ([3]; read-out: PI3K δ IC50) of over 10000 nM. It also gave an IC50 ([4]; read-out: PI3K γ IC50) of under 10000 nM.
CC(=O)Nc1nc2ccc(-c3nc(N4CCOCC4)c4sc(CN5CCN(S(C)(=O)=O)CC5)cc4n3)cc2s1 [Compound 130] showed an IC50 ([1]; read-out: PI3K β IC50) of over 10000 nM, an IC50 ([2]; read-out: PI3K α IC50) of over 10000 nM and an IC50 ([3]; read-out: PI3K δ IC50) of over 10000 nM. The IC50 ([4]; read-out: PI3K γ IC50) was over 10000 nM.
In the case of Nc1ncnc2c1c(-c1cc3cc(O)ccc3[nH]1)nn2CCN1CCOCC1 [Compound 33], the IC50 ([5]; Table 2) is reported as under 500 nM, the IC50 ([2]; read-out: PI3K α IC50, Table 2) is reported as over 500 nM and the IC50 ([3]; read-out: PI3K δ IC50, Table 2) is reported as over 500 nM. For the same compound, the IC50 ([4]; read-out: PI3K γ IC50, Table 2) was over 500 nM.
C[C@H]1CN(C2CN(c3cnc4ccc(-c5ccc6oc(N)nc6c5)nc4c3)C2)CCN1C [Compound 606] gave an IC50 ([5]; Table 4) of over 10000 nM, an IC50 [2] of under 100 nM and an IC50 [3] of under 1000 nM.
In the case of C[C@@H]1CN(C2CN(c3cnc4ccc(-c5ccc6oc(N)nc6c5)nc4c3)C2)CCN1 [Compound 607], the IC50 ([1]; read-out: PI3K β IC50, Table 4) is reported as under 10000 nM and the IC50 ([5]; Table 4) is reported as over 10000 nM.
CC(C)n1nc(-c2cc3cc(O)ccc3[nH]2)c2c(N)nccc21 [Compound 45] was tested, and the IC50 ([5]; Table 2) was over 500 nM.
For COc1cc2cc(-c3nn(C(C)C)c4ncnc(N)c34)[nH]c2cc1Cl [Compound 29], the IC50 ([5]; Table 2) was over 500 nM.
Cn1ncc2c(-c3ccc4ncc(C(=O)N5CCOCC5)n4c3)cncc21 [Compound 537] was tested, and the IC50 [2, 6] was under 10000 nM and the IC50 [4, 7] was under 10000 nM.
Work on CNS(=O)(=O)c1cc(-c2ccc3ncc(C(=O)N4CCOCC4)n3c2)ccc1OC [Compound 445] yielded an IC50 [1, 8] of over 10000 nM, an IC50 [2, 6] of over 10000 nM and an IC50 [3, 9] of over 10000 nM. The IC50 [4, 7] was over 10000 nM.
Cc1cc(-c2ccc3nc(N)oc3c2)cn2c(-c3ccncc3)nnc12 [Compound 543] showed an IC50 [1, 8] of under 10000 nM, an IC50 [2, 6] of over 10000 nM and an IC50 [3, 9] of over 10000 nM. It also gave an IC50 [4, 7] of over 10000 nM.
In the case of Cc1ncc(-c2ccc3ncc(C(=O)N4C5CCC4COC5)n3c2)c2cn[nH]c12 [Compound 538], the IC50 ([5]; in vitro) is reported as over 10000 nM and the IC50 ([3]; read-out: PI3K δ IC50) is reported as under 10000 nM.
Nc1ncnc2c1c(-c1cc3cc(O)ccc3[nH]1)nn2C1CCN(C(=O)C2CC2)CC1 [Compound 31] was tested, and the IC50 ([1]; read-out: PI3K β IC50, Table 2) was over 500 nM, the IC50 ([5]; Table 2) was under 25 nM and the IC50 ([2]; read-out: PI3K α IC50) was over 500 nM. The IC50 ([3]; read-out: PI3K δ IC50, Table 2) was 100 to 500 nM.
Cc1nccn1CCn1nc(-c2cc3cc(O)ccc3[nH]2)c2c(N)ncnc21 [Compound 44] showed an IC50 ([1]; read-out: PI3K β IC50, Table 2) of over 500 nM, an IC50 ([5]; Table 2) of under 100 nM and an IC50 ([2]; read-out: PI3K α IC50, Table 2) of over 500 nM. For the same compound, the IC50 ([3]; read-out: PI3K δ IC50) was over 500 nM.
